Entries after “also recorded” stand apart in the source; their conditions may differ. Read-outs that look alike come from different tables or passages of the source. One block for each molecule: values may come before it.
What was measured:
[1] = target: T1, P2Y receptor (turkey erythrocyte membranes) (Meleagris gallopavo, UniProt P49652); assay: Stimulation of phospholipase C (inositol phosphate formation) in turkey erythrocyte membranes; type: biochemical
T1 construct: from tissue; host or cells: washed turkey erythrocytes, ghosts prepared by hypotonic lysis
T1 sequence (P49652 whole entry): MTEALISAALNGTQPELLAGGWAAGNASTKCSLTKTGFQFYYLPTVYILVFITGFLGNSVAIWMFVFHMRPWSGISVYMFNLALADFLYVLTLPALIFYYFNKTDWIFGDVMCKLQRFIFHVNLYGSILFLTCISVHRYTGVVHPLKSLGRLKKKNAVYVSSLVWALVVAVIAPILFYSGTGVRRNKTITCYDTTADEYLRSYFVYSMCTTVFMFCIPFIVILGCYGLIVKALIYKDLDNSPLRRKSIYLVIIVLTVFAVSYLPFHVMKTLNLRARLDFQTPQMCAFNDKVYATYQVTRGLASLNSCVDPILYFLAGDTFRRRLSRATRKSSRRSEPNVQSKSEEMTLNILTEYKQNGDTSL
Method in brief: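 Erythrocytes were labelled 18-24 h at 37 °C with [3H]myoinositol, and ghosts were made by hypotonic lysis. Ghosts (≈175 μg protein) were incubated 5 min at 30 °C in Hepes buffer pH 7.0 with 1 μM GTPγS and nucleotide analogs. Total [3H]inositol phosphates were purified by anion exchange; K0.5 averaged from 3-8 dose-response curves.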

[2] = system: P2Y receptor (aorta endothelium); assay: Relaxation of noradrenalin-contracted rabbit aorta; settings: for activity/potency/selectivity in words, aorta: rabbit aorta endothelial P2Y receptor; for relaxation pD2, aorta: rabbit aorta, log molar units
P2X and P2Y receptors = assay: Overall activity in the seven P2X and P2Y preparations
P2X receptors = assay: Overall activity in P2X receptor systems
[3] = system: P2Y receptor (mesenteric artery); assay: Relaxation of rabbit mesenteric artery
P2Y receptors = assay: Overall activity in P2Y receptor systems
Procedure: Phospholipase C activity: Stimulation of inositol phosphate formation by compounds of the present invention was measured in turkey erythrocyte membranes as described by Harden et al., supra and Boyer et al., supra. The K0.5 values were averaged from 3-8 independently determined dose-response curves for each compound. Briefly, one ml of washed turkey erythrocytes was incubated in inositol-free medium (DMEM; Gibco) with 0.5-1 mCi of 2-[^3 H]myoinositol (20 Ci/mmol; American Radiolabeled Chemicals Inc., St. Louis, Mo.)for 18-24 h in a humidified atmosphere of 95% air 5% CO2 at 37° C. Erythrocyte ghosts were prepared by rapid lysis in hypotonic buffer (5 mM sodium phosphate, pH 7.4, 5 mM MgCl2, 1 mM EGTA) as described by Boyer et al., supra. Phospholipase C activity was measured in 25 μl of [^3 H]inositol-labeled ghosts (≈175 μg of protein, 200-500,000 cpm/assay) in a medium containing 424 μM CaC12, 0.91 mM MgSO4, 2 mM EGTA, 115 mM KCl, 5 mM KH2 PO4, and 10 mM Hepes, pH 7.0. Assay (100 μl or 200 μl final volume) contained 1 μM GTPγS and the indicated concentrations of nucleotide analogs. Ghosts were incubated at 30° C. for 5 min, and total [^3 H]inositol phosphates were quantitated after purification by anion exchange chromatography according to Harden et al. (supra) and Boyer et al. (supra).
(§1) Muscular relaxation/contraction: Relaxant responses mediated via P2Y receptors were examined in guinea pig taenia coli, rabbit aorta, and rabbit mesenteric artery, as described by Hoyle et al. (Br. J. Pharmacol., 107, 367-374 (1992a)), Burnstock et al., (Br. J. Pharmacol., 90, 383-391 (1987a)), and Rubino et al., (Eur. J. Pharmacol., 212, 237-240 (1992)). Contractile responses mediated via P2X receptors were examined in the guinea pig urinary bladder and vas deferens, and rabbit saphenous artery, also using standard methods (see Hoyle et al., supra., 1992; Hoyle et al., Br. J. Pharmacol., 99, 617-621 (1990); and Burnstock et al., Br. J. Pharmacol., 90, 111-120 (1987b)).

[4] = target: T2, P2X receptor (vas deferens) (Cavia porcellus, UniProt A0A286XVA9); assay: Contraction of guinea pig isolated vas deferens
T2 sequence (A0A286XVA9 1-399): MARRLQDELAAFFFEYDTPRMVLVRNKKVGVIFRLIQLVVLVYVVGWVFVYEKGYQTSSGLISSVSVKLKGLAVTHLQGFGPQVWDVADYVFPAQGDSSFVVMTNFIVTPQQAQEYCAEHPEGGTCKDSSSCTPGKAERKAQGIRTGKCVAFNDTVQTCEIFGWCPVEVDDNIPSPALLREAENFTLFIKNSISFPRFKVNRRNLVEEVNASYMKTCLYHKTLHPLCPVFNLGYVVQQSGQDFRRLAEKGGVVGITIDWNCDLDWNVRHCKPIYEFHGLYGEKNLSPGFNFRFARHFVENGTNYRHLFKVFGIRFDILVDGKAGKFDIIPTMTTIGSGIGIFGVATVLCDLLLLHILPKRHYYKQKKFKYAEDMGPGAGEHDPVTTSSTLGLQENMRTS
Procedure: In FIG. 14, the x-axis is also marked in units of the negative log of the molar concentration of applied putative P2Y receptor agonists and the y-axis is marked in units of the percentage relaxation of the 1 μM noradrenalin-induced contraction of rabbit aorta endothelium. In FIGS. 15-16, the x-axis is marked in units of the negative log of the molar concentration of applied putative p^2X receptor agonists and the y-axis is marked in units of the percentage contraction relative to a standard dose of KCl (i.e., 60 mM), as assessed in guinea pig isolated urinary bladder detrussor muscle (FIG. 15) and guinea pig isolated vas deferens (FIG. 16).

[5] = target: T3, P2X receptor (urinary bladder) (Cavia porcellus, UniProt A0A286XVA9); assay: Contraction of guinea pig isolated urinary bladder detrussor muscle; settings: guinea pig urinary bladder
T3 construct: guinea pig isolated urinary bladder detrussor muscle; from tissue; host or cells: guinea pig isolated urinary bladder detrusor muscle

[6] = target: T4, P2Y receptor (taenia coli) (Cavia porcellus, UniProt P59902); assay: Relaxation of carbachol-contracted guinea pig taenia coli
T4 construct: Relaxant responses mediated via P2Y receptors were examined in guinea pig taenia coli; from tissue; host or cells: guinea pig taenia coli (carbachol-contracted)
T4 sequence (P59902 whole entry): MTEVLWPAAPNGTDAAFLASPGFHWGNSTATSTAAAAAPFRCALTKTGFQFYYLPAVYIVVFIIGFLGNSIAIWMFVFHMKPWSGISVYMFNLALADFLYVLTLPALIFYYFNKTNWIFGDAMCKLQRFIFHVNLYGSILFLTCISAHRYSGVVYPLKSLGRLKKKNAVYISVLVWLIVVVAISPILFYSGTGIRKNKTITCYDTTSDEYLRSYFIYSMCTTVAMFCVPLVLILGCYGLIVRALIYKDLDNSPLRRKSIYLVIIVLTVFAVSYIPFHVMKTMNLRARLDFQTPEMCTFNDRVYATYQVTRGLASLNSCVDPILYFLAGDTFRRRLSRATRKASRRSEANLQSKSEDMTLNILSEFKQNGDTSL
Method in brief: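 Guinea pig taenia coli precontracted with 50 nM carbachol; relaxation to applied P2Y agonists expressed as percentage relaxation against negative log molar agonist concentration.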

[7] = target: T5, P2X receptor (saphenous artery) (Oryctolagus cuniculus, UniProt G1U3D6); assay: Contraction of rabbit saphenous artery; settings: rabbit saphenous artery
T5 construct: and rabbit saphenous artery; from tissue; host or cells: rabbit saphenous artery
T5 sequence (G1U3D6 1-399): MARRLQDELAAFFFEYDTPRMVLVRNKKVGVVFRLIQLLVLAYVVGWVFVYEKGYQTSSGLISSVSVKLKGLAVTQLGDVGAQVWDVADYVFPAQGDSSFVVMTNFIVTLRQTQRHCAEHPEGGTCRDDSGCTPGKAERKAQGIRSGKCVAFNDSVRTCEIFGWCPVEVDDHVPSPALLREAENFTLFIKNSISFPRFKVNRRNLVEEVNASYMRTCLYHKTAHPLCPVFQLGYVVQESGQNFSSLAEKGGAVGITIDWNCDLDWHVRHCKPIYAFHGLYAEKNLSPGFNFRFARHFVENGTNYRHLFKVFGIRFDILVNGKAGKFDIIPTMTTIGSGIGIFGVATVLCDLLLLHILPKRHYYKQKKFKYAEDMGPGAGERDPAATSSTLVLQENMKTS
From the text: as §1
^c For the saphenous artery, the percentages in brackets are response
at 10 μM relative to the contraction produced by 1 μM α,MeATP
ATP in this assay is very weak (EC50 =
1.78 mM). The highest concentrations of the analogues tested were 3-30

[8] = turkey erythrocyte membranes, mean ± S.E.M. for at least 2 determinations, read-out: phosphatidyl inositol metabolism (K0.5, nM) erythrocyte

- EC50 [1, 8]: > 100000 nM
- overall activity in words, P2X systems (P2X receptors): inactive in the P2X receptor systems
Compound: CC1(C)O[C@@H]2[C@H](O1)[C@@H](COP(=O)(O)O)O[C@H]2n1cnc2c(N)ncnc21 [2',3'-Isopropylidene-AMP, 2',3'-Isopropylidene AMP]
- activity/potency/selectivity in words, aorta ([2]; listed as 2',3'-isopropylidene-AMP): a potent agonist at the rabbit endothelial P2Y receptor
- activity/potency/selectivity in words, aorta ([2]; listed as Isopropylidene-AMP): specific for the aortic endothelial P2Y receptor
- overall activity in words, all preparations (P2X and P2Y receptors): Neither was particularly active at either P2X or P2Y receptors

- activity/potency in words, turkey erythrocyte ([1]; turkey erythrocyte membranes, listed as 8-(6-Aminohexylamino)ATP): somewhat active in turkey erythrocytes
- EC50 [1, 8]: 8200 ± 1200 nM
- overall activity in words, P2X systems (P2X receptors): inactive in the P2X receptor systems
- overall activity in words, P2Y systems (P2Y receptors): specific for P2Y receptors
Compound: NCCCCCCNc1nc2c(N)ncnc2n1[C@@H]1O[C@H](COP(=O)(O)OP(=O)(O)OP(=O)(O)O)[C@@H](O)[C@H]1O [8-(6-Aminohexylamino)-ATP, 8-(6-aminohexylamino)-ATP, reference compound]
- activity/potency in words, turkey erythrocyte ([1]; turkey erythrocyte membranes, listed as 8-(6-amino-hexylamino)ATP): less potent than ATP at the turkey erythrocyte P2Y receptor
- activity/potency/selectivity in words, aorta ([2]; listed as 8-(6-Aminohexylamino)ATP): selective for the endothelial receptors of the rabbit aorta versus the mesenteric artery and taenia coli
- activity/potency/selectivity in words, aorta ([2]; listed as 8-(6-amino-hexylamino)ATP): much more potent than ATP
- activity/potency/selectivity in words, aorta ([2]; listed as 8-(6-aminohexylamino)ATP): high selectivity
- relaxation pD2, aorta [2]: 7.3
- activity/potency in words, mesenteric artery [3]: no activity at the mesenteric artery P2Y receptor

- EC50 [1, 8]: > 100000 nM
- activity/potency in words, vas deferens [4]: inactive in the vas deferens
- activity/potency in words, bladder [5]: limited activity in the urinary bladder
Compound: O=P(O)(O)OP(=O)(O)OP(=O)(O)OC[C@H]1O[C@@H](n2cnc3c2ncn2ccnc32)[C@H](O)[C@@H]1O [N1,N^6 -etheno-ATP, reference compound]
- overall activity in words, all preparations (P2X and P2Y receptors): greatly reduce or abolish activity within most P2X and P2Y preparations

Compound: Nc1ncnc2c1ncn2[C@@H]1O[C@@H]2COP(=O)(OP(=O)(O)CP(=O)(O)O)O[C@H]2[C@H]1O (stereo partly drawn) [3',5'-Cyclic-β,γ-methylene adenosine 5'-triphosphate]
- EC50 ([1]; at 10^-5 M, read-out: phosphatidyl inositol metabolism (K0.5) erythrocyte, class symbol): > 10000 nM
- overall activity in words, all preparations (P2X and P2Y receptors; listed as Cyclized β,γ-methylene ATP): without effect in all seven types of preparation tested
- overall activity in words, all preparations (P2X and P2Y receptors; listed as β,γ-methylene-adenosine-3',5'-cyclic triphosphate): greatly reduce or abolish activity within most P2X and P2Y preparations

Compound: Nc1ncnc2c1ncn2[C@H]1C[C@H](O)[C@@H](COP(=O)(O)OP(=O)(O)OP(=O)(O)O)O1 [2'-Deoxy-ATP, 2'-deoxy-ATP, reference compound]
- fold less potent than ATP, turkey erythrocyte ([1]; relative to ATP): 7 -fold
- activity/potency in words, turkey erythrocyte ([1]; turkey erythrocyte membranes): seven times less potent than ATP in the turkey erythrocyte
- EC50 [1, 8]: 19200 nM
- activity/potency in words, taenia coli ([6]; guinea pig taenia coli): roughly equipotent with ATP in the taenia coli
- activity/potency in words, taenia coli ([6]; guinea pig taenia coli, listed as 2'-deoxy-ATP): selectivity
- EC50 ([6]; guinea pig taenia coli, log molar units, read-out: relaxation pD2, taenia coli (converted)): 2.51 µM
- overall activity in words, all preparations (P2X and P2Y receptors): inactive in the five other preparations
- overall activity in words, P2X systems (P2X receptors): inactive in the P2X receptor systems

- EC50 [1, 8]: 75500 nM
- activity/potency in words, saphenous artery [7]: no effect
Compound: Nc1ncnc2c1ncn2[C@@H]1O[C@H](COP(=O)(O)OP(=O)(O)OP(=O)(O)O)C[C@H]1O [3'-Deoxy-ATP, 3'-deoxy-ATP, reference compound]
- activity/potency in words, vas deferens [4]: as active as ATP, or nearly so; also recorded: equivalent to the effect of ATP
- activity/potency in words, bladder [5]: as active as ATP, or nearly so; also recorded: less potent or equal to potency of ATP
- overall activity in words, all preparations (P2X and P2Y receptors): greatly reduce or abolish activity within most P2X and P2Y preparations
- overall activity in words, P2Y systems (P2Y receptors): less potent than 2'-deoxy-ATP at P2Y receptors

Compound: Nc1ncnc2c1ncn2[C@@H]1O[C@H](COP(=O)(O)OP(=O)(O)OP(=O)(O)O)[C@@H](N)[C@H]1O [3'-Amino-3'deoxy-ATP, 3'-Amino-3'-deoxyadenosine 5'-triphosphate, reference compound]
- times more potent than ATP, turkey erythrocyte ([1]; relative to ATP): approximately 15 times
- EC50 [1, 8]: 193 nM
- EC50 [6]: 3.98 µM
- activity/potency in words, taenia coli ([6]; guinea pig taenia coli): almost as potent as ATP in the taenia coli
- relaxation pD2, aorta [2]: 6.4
- activity/potency in words, saphenous artery [7]: inactive in the saphenous artery
- activity/potency in words, vas deferens [4]: more or less as potent as ATP
- activity/potency in words, bladder [5]: more or less as potent as ATP
- overall activity in words, all preparations (P2X and P2Y receptors): generally enhanced potency at P2 receptors

- EC50 [1, 8]: 201000 nM
- activation at 10 µM ([7]; 10 μM, read-out: response at 10 μM relative to the contraction produced by 1 μM α,MeATP, saph. artery): 7.7%
- activity/potency in words, vas deferens [4]: inactive in the vas deferens
- activity/potency in words, bladder [5]: limited activity in the urinary bladder
Compound: CC1(C)O[C@@H]2[C@H](O1)[C@@H](COP(=O)(O)OP(=O)(O)OP(=O)(O)O)O[C@H]2n1cnc2c(N)ncnc21 [2',3'-Isopropylidene-ATP, 2',3'-Isopropylidene adenosine 5'-triphosphate]
- activity/potency/selectivity in words, aorta [2]: high selectivity
- overall activity in words, all preparations (P2X and P2Y receptors): Neither was particularly active at either P2X or P2Y receptors

Reference: patent US5620676A, “Biologically active ATP analogs” (priority 1995, dated 1997)
